Results from US20170246144A1, “METHOD OF PREVENTING OR TREATING SPINOCEREBELLAR ATAXIA BY ADMINISTRATING SILIBININ” (National Taiwan Normal University, priority 2016, published 2017).

What was measured:
Format in all cases: cell-based, Human
[1] = test system: SH-SY5Y cells; assay: Western blotting of calpain-2 and SBDP after MSG; settings: 15 μM, 100 mM MSG, 6 hours
Method: The levels of calpain-2 and SBDPs were measured by western blotting in 1×10^6 SH-SY5Y cells, wherein the control group (Ctrl) was untreated SH-SY5Y cells or the cells were treated with 100 mM MSG, 100 mM MSG+15 μM SB or 100 mM MSG+10 μM MK801 (MK) for 6 hours. Actin was used as a loading control.
In present embodiment, western blotting was performed to study whether silibinin protects SH-SY5Y cell from apoptosis due to glutamatergic excitotoxicity via calcium-dependent apoptosis pathway.
Calpain-2, a thiol proteinase, is activated by the increases of intracellular free calcium ions and the reduction of Bcl-2 level. The level of SBDPs was elevated by calcium-induced calpain-2 in glutamate-induced cell death. Therefore, calpain-2 and SBDPs were used as indicators in the present embodiment.
SH-SY5Y cells were treated with silibinin at pre-determined concentrations or 10 μM MK801 for 1 hour followed by the treatment of 100 mM MSG. Western blotting was performed to analyze the levels of calpain-2 and SBDP.

[2] = test system: SH-SY5Y cells; assay: JC-1 flow cytometry of mitochondria membrane potential (MMP); settings: 15 μM + 100 mM MSG
Method: FIGS. 7A and 7B show the effects of SB on mitochondria membrane potential (MMP) in SH-SY5Y cells treated with MSG measured by JC-1 staining with a flow cytometry, wherein the control group (Ctrl) was untreated SH-SY5Y cells or the cells were treated with 100 mM MSG, 100 mM MSG+15 μM SB, 100 mM MSG+10 μM MK801 (MK) or 5 μM CCCP (disruptor of electron transport chain) for 12 hours. […] The results were shown as mean±SEM, n=3, *p<0.05, comparing to the MSG treatment group.
In the present embodiment, flow cytometry analysis was used to investigate whether silibinin can prevent the reduction of mitochondria membrane potential induced by glutamate in SH-SY5Y cells.
SH-SY5Y cells were seeded in 6 centimeter dish (1×10^6 cells/plate) for 24 hours, and then were pre-treated with 15 μM silibinin or 10 μM MK-801 for 1 hour followed by the treatment of 100 mM MSG for 12 hours. 5 μM carbonyl cyanide m-chlorophenylhydrazone (CCCP) was added to the positive control group to induce the depolarization of mitochondria membrane potential.
The treated cells were washed, centrifuged and collected, followed by PBS wash and JC-1 dye staining for 30 minutes. The stained cells were re-suspended using phosphate buffer solution and analyzed by a flow cytometry to obtain a 2-dimensional scatter plot. 10,000 cells were recorded for each experiment.

[3] = test system: nTBP/Q79-EGFP cells; assay: MTT viability of Dox-induced nTBP/Q79-EGFP cells; settings: 15 μM, Dox induction 5 days
Method: FIGS. 8A-8C show the effects of SB on improving the viability of nTBP/Q79-EGFP cells and inhibiting the expression levels of cleaved caspase-9, cleaved caspase-3, and cleaved PARP in nTBP/Q79-EGFP cells induced by doxycycline (Dox). FIG. 8A: The viabilities of 1.0×10^6 nTBP/Q36-EGFP cells and nTBP/Q79-EGFP cells which were pretreated with 15 μM SB for 1 hour followed by the induction of Dox for 1, 3, and 5 days were measured by MTT assay. FIG. 8B: 1.0×10^6 nTBP/Q36-EGFP cells and nTBP/Q79-EGFP cells were pretreated with 15 μM SB for 1 hour followed by the induction of Dox for 5 days. The levels of cleaved caspase-9, cleaved caspase-3, and cleaved PARP were detected by western blotting. Actin was used as a loading control. […] The results were shown as mean±SD, n=3, *p<0.05, comparing to the Dox group.
Human neuroblastoma SH-SY5Y cell line was obtained from American Type Culture Collection (ATCC). nTBP/Q36-EGFP cells (poly-Q of TATA-binding protein contains 36 glutamines in SH-SY5Y cells) and nTBP/Q79-EGFP cells (poly-Q of TATA-binding protein contains 79 glutamines in SH-SY5Y cells) were kindly supplied by Dr. Guey-Jen Lee-Chen, National Taiwan Normal University (NTNU). […]
The cell viability was measured using MTT colorimetric assay as mentioned previously. […]

## COc1cc(C2Oc3cc([C@H]4Oc5cc(O)cc(O)c5C(=O)[C@@H]4O)ccc3OC2CO)ccc1O (stereo partly shown) [silibinin]
[1]
  reduction of SBDP level, compared to the increased level with MSG only: 250%
  reduction of calpain-2 level, compared to the increased level with MSG only: 200%
[2]
  MMP compared to Ctrl: 85+13%
[3]
  increase of cell viability of nTBP/Q79-EGFP cells: approximately 20%
